Reference: ChEMBL document CHEMBL1201862, “PubChem BioAssay data set” (2004)
Active and inactive are the calls of the source.

Experiments:
[1] = target: T1, Sentrin-specific protease 7 (Homo sapiens, UniProt Q9BQF6); assay type: functional;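 also: Luminescence-based dose-response confirmation of ultra-high-throughput screening hits, measuring inhibition of SENP7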
T1 sequence (Q9BQF6 whole entry): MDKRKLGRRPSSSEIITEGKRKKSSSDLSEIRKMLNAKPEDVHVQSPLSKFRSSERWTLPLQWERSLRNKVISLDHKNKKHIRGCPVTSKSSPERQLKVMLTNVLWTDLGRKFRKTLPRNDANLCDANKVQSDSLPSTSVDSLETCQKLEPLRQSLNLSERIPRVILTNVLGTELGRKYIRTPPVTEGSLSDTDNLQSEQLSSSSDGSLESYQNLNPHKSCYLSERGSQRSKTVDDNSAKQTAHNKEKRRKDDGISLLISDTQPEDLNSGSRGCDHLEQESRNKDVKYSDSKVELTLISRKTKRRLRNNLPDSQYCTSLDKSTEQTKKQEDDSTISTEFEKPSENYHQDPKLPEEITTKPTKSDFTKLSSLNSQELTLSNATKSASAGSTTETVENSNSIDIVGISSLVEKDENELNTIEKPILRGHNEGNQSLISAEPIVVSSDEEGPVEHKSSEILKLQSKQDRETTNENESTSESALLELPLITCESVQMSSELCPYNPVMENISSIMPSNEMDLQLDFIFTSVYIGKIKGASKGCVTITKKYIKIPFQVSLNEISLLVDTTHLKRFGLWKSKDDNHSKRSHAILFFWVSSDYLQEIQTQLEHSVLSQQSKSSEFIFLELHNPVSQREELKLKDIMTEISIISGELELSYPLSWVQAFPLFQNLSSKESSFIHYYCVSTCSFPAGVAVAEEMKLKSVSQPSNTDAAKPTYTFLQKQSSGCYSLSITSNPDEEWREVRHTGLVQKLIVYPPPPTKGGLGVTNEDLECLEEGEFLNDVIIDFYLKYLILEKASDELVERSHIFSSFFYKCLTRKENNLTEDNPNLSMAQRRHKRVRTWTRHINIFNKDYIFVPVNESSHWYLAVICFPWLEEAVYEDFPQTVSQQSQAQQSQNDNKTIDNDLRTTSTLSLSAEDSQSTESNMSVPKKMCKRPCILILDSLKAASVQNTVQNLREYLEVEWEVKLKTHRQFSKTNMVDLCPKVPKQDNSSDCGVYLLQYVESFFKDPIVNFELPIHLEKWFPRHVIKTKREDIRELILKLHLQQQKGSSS

[2] = microbe, parasite or virus in culture; assay type: functional; conditions: Mycobacterium tuberculosis
Caspase-3 = target: T2, Caspase-3 (Homo sapiens, UniProt P42574); assay type: functional;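 also: Dose-response selectivity test against caspase-3 for candidate inhibitors of sentrin-specific proteases (SENPs)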
T2 sequence (P42574 whole entry): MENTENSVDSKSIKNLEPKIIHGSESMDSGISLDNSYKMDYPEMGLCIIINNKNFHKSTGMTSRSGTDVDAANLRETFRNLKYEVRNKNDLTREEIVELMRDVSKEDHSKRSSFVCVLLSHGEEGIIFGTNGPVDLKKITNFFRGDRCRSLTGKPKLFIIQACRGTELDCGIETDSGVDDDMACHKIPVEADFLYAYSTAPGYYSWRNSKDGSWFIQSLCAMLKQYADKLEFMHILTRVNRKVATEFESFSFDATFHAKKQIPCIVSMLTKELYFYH

[3] = target: T3, Sentrin-specific protease 6 (Homo sapiens, UniProt Q9GZR1); assay type: functional;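 also: Luminescence-based dose-response confirmatory assay of SENP6 inhibition, following up an ultra-high-throughput screen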
T3 sequence (Q9GZR1 whole entry): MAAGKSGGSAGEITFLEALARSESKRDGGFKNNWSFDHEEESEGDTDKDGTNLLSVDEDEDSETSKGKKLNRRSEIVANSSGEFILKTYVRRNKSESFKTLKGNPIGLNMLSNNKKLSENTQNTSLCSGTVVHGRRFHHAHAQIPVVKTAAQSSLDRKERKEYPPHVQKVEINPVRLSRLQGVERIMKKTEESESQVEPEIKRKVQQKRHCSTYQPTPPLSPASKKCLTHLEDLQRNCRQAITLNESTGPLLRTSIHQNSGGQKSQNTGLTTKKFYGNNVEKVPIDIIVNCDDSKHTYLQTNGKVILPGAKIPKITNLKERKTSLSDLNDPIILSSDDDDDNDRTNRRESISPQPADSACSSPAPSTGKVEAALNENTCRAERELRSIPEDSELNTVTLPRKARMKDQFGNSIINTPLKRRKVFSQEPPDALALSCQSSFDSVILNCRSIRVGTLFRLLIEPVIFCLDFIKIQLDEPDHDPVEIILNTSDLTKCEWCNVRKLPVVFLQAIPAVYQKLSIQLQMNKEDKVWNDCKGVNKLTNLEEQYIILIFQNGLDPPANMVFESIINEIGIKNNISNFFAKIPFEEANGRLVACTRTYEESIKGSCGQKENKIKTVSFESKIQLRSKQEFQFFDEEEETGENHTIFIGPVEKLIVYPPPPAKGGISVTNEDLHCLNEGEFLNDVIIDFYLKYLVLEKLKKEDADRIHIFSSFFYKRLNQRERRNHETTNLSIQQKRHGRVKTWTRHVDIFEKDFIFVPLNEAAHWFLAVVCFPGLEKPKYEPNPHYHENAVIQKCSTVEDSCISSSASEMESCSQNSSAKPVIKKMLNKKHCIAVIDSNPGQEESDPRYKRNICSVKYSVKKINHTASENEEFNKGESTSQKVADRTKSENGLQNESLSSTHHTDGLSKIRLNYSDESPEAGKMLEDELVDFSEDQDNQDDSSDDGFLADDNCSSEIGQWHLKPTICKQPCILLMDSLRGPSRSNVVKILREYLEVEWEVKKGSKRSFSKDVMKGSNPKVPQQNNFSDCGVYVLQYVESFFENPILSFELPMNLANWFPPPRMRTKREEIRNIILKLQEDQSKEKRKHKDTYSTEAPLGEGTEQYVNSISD

[4] = target: T4, Sentrin-specific protease 8 (Homo sapiens, UniProt Q96LD8); assay type: functional;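 also: luminescence read-out of SENP8 inhibition, dose-response confirmation following an ultra-high-throughput screen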
T4 sequence (Q96LD8 whole entry): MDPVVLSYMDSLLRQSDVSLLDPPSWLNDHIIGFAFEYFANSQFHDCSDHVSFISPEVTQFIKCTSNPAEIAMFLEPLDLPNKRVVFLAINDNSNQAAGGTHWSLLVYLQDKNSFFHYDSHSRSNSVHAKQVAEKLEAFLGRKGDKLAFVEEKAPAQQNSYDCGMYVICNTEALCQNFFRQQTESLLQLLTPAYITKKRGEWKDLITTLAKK

[5] = target: T5, Endoribonuclease toxin MazF (Escherichia coli K-12, UniProt P0AE70); test: MazF toxin RNase activators, dose response, biochemical, fluorescence, single-stranded RNA substrate, uHTS hits (AID 588481); assay type: functional
T5 sequence (P0AE70 whole entry): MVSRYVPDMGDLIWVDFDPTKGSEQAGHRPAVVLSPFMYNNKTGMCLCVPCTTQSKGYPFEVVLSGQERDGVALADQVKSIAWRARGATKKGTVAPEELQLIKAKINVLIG

[6] = target: T5, Endoribonuclease toxin MazF; test: fluorescent RNA oligo signal without MazF, dose response, counter-screen for MazEF activator project, biochemical, fluorescence, single-stranded RNase substrate (AID 588502); assay type: functional
[7] = target: T6, Corticotropin-releasing factor receptor 2/Corticotropin-releasing factor-binding protein (Homo sapiens, UniProt P24387+Q13324); test: activators of CRF receptor 2 with binding protein – uHTS hits, confirmation (AID 602473); assay type: functional; conditions: read-out: EC50_Mean
T6 sequence (Q13324 whole entry): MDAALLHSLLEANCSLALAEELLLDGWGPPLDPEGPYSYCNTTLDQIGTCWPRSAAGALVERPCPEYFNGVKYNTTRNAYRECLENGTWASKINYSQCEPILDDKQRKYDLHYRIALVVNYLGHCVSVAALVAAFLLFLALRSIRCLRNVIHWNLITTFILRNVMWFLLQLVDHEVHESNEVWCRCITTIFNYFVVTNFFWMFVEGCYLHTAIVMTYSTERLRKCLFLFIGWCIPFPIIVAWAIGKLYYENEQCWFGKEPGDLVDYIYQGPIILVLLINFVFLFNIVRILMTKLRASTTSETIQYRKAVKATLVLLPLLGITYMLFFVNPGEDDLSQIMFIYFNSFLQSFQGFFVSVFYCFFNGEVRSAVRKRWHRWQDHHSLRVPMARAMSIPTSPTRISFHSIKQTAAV
T6 sequence (P24387 whole entry): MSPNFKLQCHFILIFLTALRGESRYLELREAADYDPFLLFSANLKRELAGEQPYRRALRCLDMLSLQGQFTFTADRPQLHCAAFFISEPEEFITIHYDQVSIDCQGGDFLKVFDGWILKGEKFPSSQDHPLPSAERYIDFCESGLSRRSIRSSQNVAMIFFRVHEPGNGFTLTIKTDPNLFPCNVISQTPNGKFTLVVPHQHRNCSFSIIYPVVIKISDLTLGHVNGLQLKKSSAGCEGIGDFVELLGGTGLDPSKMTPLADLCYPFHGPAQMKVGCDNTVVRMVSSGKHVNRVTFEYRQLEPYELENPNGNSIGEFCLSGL

[8] = target: T7, Long-chain-fatty-acid--AMP ligase FadD28 (Mycobacterium tuberculosis, UniProt P9WQ59); test: Fluorescence polarization aasay to screen for inhibitors that compete for the binding of FadD28 to a bisubstrate Measured in Biochemical System Using Plate Reader - 2147-01_Inhibitor_Dose_CherryPick_Activity.; assay type: functional, Mycobacterium tuberculosis H37Rv
T7 sequence (P9WQ59 whole entry): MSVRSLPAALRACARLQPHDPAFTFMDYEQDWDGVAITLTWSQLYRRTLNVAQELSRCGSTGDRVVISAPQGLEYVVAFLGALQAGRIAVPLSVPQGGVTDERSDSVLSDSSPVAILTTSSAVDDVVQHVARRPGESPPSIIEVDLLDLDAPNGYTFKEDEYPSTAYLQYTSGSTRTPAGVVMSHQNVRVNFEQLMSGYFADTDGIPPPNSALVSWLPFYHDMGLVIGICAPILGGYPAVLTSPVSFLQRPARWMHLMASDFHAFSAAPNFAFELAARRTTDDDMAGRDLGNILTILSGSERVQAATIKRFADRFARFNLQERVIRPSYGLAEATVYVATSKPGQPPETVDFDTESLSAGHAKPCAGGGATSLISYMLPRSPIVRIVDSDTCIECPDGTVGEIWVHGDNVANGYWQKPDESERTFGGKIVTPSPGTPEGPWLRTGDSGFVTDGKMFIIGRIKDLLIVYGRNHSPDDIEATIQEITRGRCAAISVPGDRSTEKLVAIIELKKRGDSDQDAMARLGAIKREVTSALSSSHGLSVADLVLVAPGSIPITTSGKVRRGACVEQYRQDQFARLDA

[9] = target: FAD-linked sulfhydryl oxidase ALR (Homo sapiens, UniProt P55789); test: inhibitors of human ALR sulfhydryl oxidase, dose response, biochemical, H2O2 detection, luminescence, cherry-pick (AID 493248)
Sequence of FAD-linked sulfhydryl oxidase ALR (P55789 whole entry): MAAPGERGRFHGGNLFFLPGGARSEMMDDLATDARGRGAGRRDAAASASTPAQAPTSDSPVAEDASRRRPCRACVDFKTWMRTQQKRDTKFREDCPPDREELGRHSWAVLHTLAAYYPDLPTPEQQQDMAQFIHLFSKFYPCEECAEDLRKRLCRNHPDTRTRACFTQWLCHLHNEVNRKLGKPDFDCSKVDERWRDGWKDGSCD

Nc1c2c(nc3sc4c(c13)CCCCC4)CCCC2
IC50 [1]: 10.3 µM (active) | CC50 [2]: 18 µM (active) | IC50 (Caspase-3): 18.4 µM (active) | IC50 [3]: 33.7 µM (active) | IC50 [4]: 32.8 µM (active)

Cc1ccc2c(Cl)c(C(=O)N/N=C/c3cccn3C)sc2c1
EC50 [5]: > 99 µM (inactive) | EC50 [6]: > 99 µM (inactive)

CCOc1ccc(N2C(=O)NC(=O)/C(=C\c3c[nH]c4ccccc34)C2=O)cc1
EC50 [5]: > 99 µM (inactive) | EC50 [6]: 16.3 µM (active) | EC50 [7]: 15.4 µM (active)

COC(=O)Cn1c2ccc(OC)cc2c2nc3ccccc3nc21
EC50 [5]: > 99 µM (inactive) | EC50 [6]: > 99 µM (inactive)

Cc1ccc(S(=O)(=O)NCC(=O)Nc2ccc3c(c2)OCCO3)cc1
AC50 [8]: > 100 µM (inactive)

CCCCN1CC(=O)N2[C@H]3c4cc(C)ccc4OC[C@@H]3[C@H](c3ccccc3)[C@]2(C)C1=O
EC50 [5]: > 99 µM (inactive) | EC50 [6]: 24 µM (inactive)

Cc1cccc(-c2noc(C3CCCCC3)n2)c1
IC50 [1]: 11.3 µM (active) | IC50 (Caspase-3): 32 µM (active) | IC50 [3]: 40.1 µM (active) | IC50 [4]: > 100 µM (inactive)

COc1cc(/C=C2\SC(=S)N(CC(=O)Nc3cccnc3)C2=O)cc(OC)c1OC
AC50 [8]: 72.2 µM (active)

NS(=O)(=O)c1ccc(NC(=O)COc2ccc(C(=O)c3ccc(F)cc3)cc2)cc1
AC50 [8]: > 100 µM (inactive)

CCCNC(=O)Cn1c(=O)/c(=C/c2ccc(-c3cccc([N+](=O)[O-])c3)o2)s/c1=C\C(=O)C(C)(C)C
EC50 [5]: > 99 µM (inactive) | EC50 [6]: > 99 µM (inactive)

COc1ccc(-c2csc(Nc3ccc(S(=O)(=O)Nc4cc(C)on4)cc3)n2)cc1
AC50 [8]: 67.4 µM (active) | AC50 [9]: 12.9 µM (active)
